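1) Cells in 96-well plates. 2) Compound, 48 h, 5 concentrations. 3) Linear interpolation between surrounding doses. 4) Unreached endpoint = highest concentration. TGI: total growth inhibition.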
What was measured:
Experiment in all cases: DTP human tumour cell line panel, 48 h
DU-145 prostate = test system: DU-145 prostate
RPMI-8226 leukemia = test system: RPMI-8226 leukemia
SF-295 CNS = test system: SF-295 CNS
LOX IMVI melanoma = test system: LOX IMVI melanoma
COLO 205 colon = test system: COLO 205 colon
HL-60(TB) leukemia = test system: HL-60(TB) leukemia
MALME-3M melanoma = test system: MALME-3M melanoma
OVCAR-4 ovarian = test system: OVCAR-4 ovarian
KM12 colon = test system: KM12 colon
CAKI-1 renal = test system: CAKI-1 renal
UO-31 renal = test system: UO-31 renal
MOLT-4 leukemia = test system: MOLT-4 leukemia
PC-3 prostate = test system: PC-3 prostate
A549 NSCLC = test system: A549 NSCLC
SNB-75 CNS = test system: SNB-75 CNS
IGROV1 ovarian = test system: IGROV1 ovarian
SW-620 colon = test system: SW-620 colon
SK-OV-3 ovarian = test system: SK-OV-3 ovarian
SK-MEL-5 melanoma = test system: SK-MEL-5 melanoma
ACHN renal = test system: ACHN renal
CCRF-CEM leukemia = test system: CCRF-CEM leukemia
HS 578T breast = test system: HS 578T breast
U251 CNS = test system: U251 CNS
HOP-92 NSCLC = test system: HOP-92 NSCLC
UACC-62 melanoma = test system: UACC-62 melanoma
MDA-MB-231 breast = test system: MDA-MB-231 breast
OVCAR-3 ovarian = test system: OVCAR-3 ovarian
HCT-15 colon = test system: HCT-15 colon
SF-268 CNS = test system: SF-268 CNS
OVCAR-5 ovarian = test system: OVCAR-5 ovarian
M14 melanoma = test system: M14 melanoma
HOP-62 NSCLC = test system: HOP-62 NSCLC
NCI-H23 lung = test system: NCI-H23 lung
SR leukemia = test system: SR leukemia
MCF7 breast = test system: MCF7 breast
OVCAR-8 ovarian = test system: OVCAR-8 ovarian
NCI-H522 lung = test system: NCI-H522 lung
SN12C renal = test system: SN12C renal
TK-10 renal = test system: TK-10 renal
NCI/ADR-RES ovarian = test system: NCI/ADR-RES ovarian
SK-MEL-28 melanoma = test system: SK-MEL-28 melanoma
UACC-257 melanoma = test system: UACC-257 melanoma
NCI-H460 lung = test system: NCI-H460 lung
SK-MEL-2 melanoma = test system: SK-MEL-2 melanoma
SF-539 CNS = test system: SF-539 CNS
BT-549 breast = test system: BT-549 breast
HT29 colon = test system: HT29 colon
K-562 leukemia = test system: K-562 leukemia
T-47D breast = test system: T-47D breast
A498 renal = test system: A498 renal
SNB-19 CNS = test system: SNB-19 CNS
MDA-MB-435 = test system: MDA-MB-435
786-0 renal = test system: 786-0 renal
HCT-116 colon = test system: HCT-116 colon
HCC-2998 colon = test system: HCC-2998 colon
RXF 393 renal = test system: RXF 393 renal
EKVX NSCLC = test system: EKVX NSCLC
NCI-H226 lung = test system: NCI-H226 lung

For `CCOC(=O)C1=C(C)N(c2ccc(Cl)cc2)C2(O)C=CC(Nc3ccc(Cl)cc3)=C3C(=O)N(c4ccccc4)C(=O)C312` (configuration not stated), the TGI (DU-145 prostate) was 17.8 µM, the TGI (RPMI-8226 leukemia) was 4.13 µM and the TGI (SF-295 CNS) was 13.8 µM. The TGI (LOX IMVI melanoma) was 4.36 µM, the TGI (COLO 205 colon) was 7.2 µM and the TGI (HL-60(TB) leukemia) was 23.4 µM. It also gave a TGI (MALME-3M melanoma) of 33.7 µM, a TGI (OVCAR-4 ovarian) of 15.1 µM and a TGI (KM12 colon) of 23.1 µM. It also gave a TGI (CAKI-1 renal) of 13.5 µM, a TGI (UO-31 renal) of 20.3 µM and a TGI (MOLT-4 leukemia) greater than 100 µM. For the same compound, the TGI (PC-3 prostate) was 22.8 µM, the TGI (A549 NSCLC) was greater than 100 µM and the TGI (SNB-75 CNS) was 20.3 µM. For the same compound, the TGI (IGROV1 ovarian) was 21.9 µM, the TGI (SW-620 colon) was 14.6 µM and the TGI (SK-OV-3 ovarian) was 24.9 µM. It also gave a TGI (SK-MEL-5 melanoma) of 11 µM, a TGI (ACHN renal) of 20 µM and a TGI (CCRF-CEM leukemia) of 8.39 µM. The TGI (HS 578T breast) was greater than 100 µM, the TGI (U251 CNS) was 39.5 µM and the TGI (HOP-92 NSCLC) was 9.19 µM. For the same compound, the TGI (UACC-62 melanoma) was 7.15 µM, the TGI (MDA-MB-231 breast) was 35.2 µM and the TGI (OVCAR-3 ovarian) was 2.09 µM. It also gave a TGI (HCT-15 colon) of 16.3 µM, a TGI (SF-268 CNS) of 20.1 µM and a TGI (OVCAR-5 ovarian) of 21.3 µM. For the same compound, the TGI (M14 melanoma) was 19.7 µM, the TGI (HOP-62 NSCLC) was 14.9 µM and the TGI (NCI-H23 lung) was 20 µM. It also gave a TGI (SR leukemia) greater than 100 µM, a TGI (MCF7 breast) of 9.3 µM and a TGI (OVCAR-8 ovarian) of 18.1 µM. The TGI (NCI-H522 lung) was 5.25 µM, the TGI (SN12C renal) was 13.4 µM and the TGI (TK-10 renal) was 52.1 µM. It also gave a TGI (NCI/ADR-RES ovarian) of 12.7 µM, a TGI (SK-MEL-28 melanoma) of 6.89 µM and a TGI (UACC-257 melanoma) of 39.2 µM. The TGI (NCI-H460 lung) was 13.7 µM, the TGI (SK-MEL-2 melanoma) was 10.5 µM and the TGI (SF-539 CNS) was 18.3 µM. It also gave a TGI (BT-549 breast) of 4.69 µM, a TGI (HT29 colon) of 16.9 µM and a TGI (K-562 leukemia) greater than 100 µM. The TGI (T-47D breast) was 19.4 µM, the TGI (A498 renal) was 9.33 µM and the TGI (SNB-19 CNS) was 52.3 µM. The TGI (MDA-MB-435) was 5.29 µM.

`Cc1ccc(O)cc1` (tested in a mixture with another compound) was tested, and the TGI (DU-145 prostate) was greater than 100 µM, the TGI (RPMI-8226 leukemia) was greater than 100 µM and the TGI (SF-295 CNS) was greater than 100 µM. The TGI (LOX IMVI melanoma) was greater than 100 µM, the TGI (COLO 205 colon) was greater than 100 µM and the TGI (HL-60(TB) leukemia) was greater than 100 µM. For the same compound, the TGI (MALME-3M melanoma) was greater than 100 µM, the TGI (OVCAR-4 ovarian) was greater than 100 µM and the TGI (KM12 colon) was greater than 100 µM. It also gave a TGI (CAKI-1 renal) greater than 100 µM, a TGI (UO-31 renal) greater than 100 µM and a TGI (MOLT-4 leukemia) greater than 100 µM. It also gave a TGI (PC-3 prostate) greater than 100 µM, a TGI (A549 NSCLC) greater than 100 µM and a TGI (IGROV1 ovarian) greater than 100 µM. For the same compound, the TGI (SW-620 colon) was greater than 100 µM, the TGI (SK-OV-3 ovarian) was greater than 100 µM and the TGI (SK-MEL-5 melanoma) was greater than 100 µM. It also gave a TGI (ACHN renal) greater than 100 µM, a TGI (786-0 renal) greater than 100 µM and a TGI (CCRF-CEM leukemia) greater than 100 µM. It also gave a TGI (HS 578T breast) greater than 100 µM, a TGI (U251 CNS) greater than 100 µM and a TGI (UACC-62 melanoma) greater than 100 µM. It also gave a TGI (MDA-MB-231 breast) greater than 100 µM, a TGI (OVCAR-3 ovarian) greater than 100 µM and a TGI (HCT-15 colon) greater than 100 µM. For the same compound, the TGI (SF-268 CNS) was greater than 100 µM, the TGI (OVCAR-5 ovarian) was greater than 100 µM and the TGI (HCT-116 colon) was greater than 100 µM. For the same compound, the TGI (HCC-2998 colon) was greater than 100 µM, the TGI (M14 melanoma) was greater than 100 µM and the TGI (HOP-62 NSCLC) was greater than 100 µM. It also gave a TGI (RXF 393 renal) greater than 100 µM, a TGI (NCI-H23 lung) greater than 100 µM and a TGI (MCF7 breast) greater than 100 µM. For the same compound, the TGI (OVCAR-8 ovarian) was greater than 100 µM, the TGI (EKVX NSCLC) was greater than 100 µM and the TGI (NCI-H522 lung) was greater than 100 µM. It also gave a TGI (SN12C renal) greater than 100 µM, a TGI (TK-10 renal) greater than 100 µM and a TGI (NCI-H226 lung) greater than 100 µM. It also gave a TGI (NCI/ADR-RES ovarian) greater than 100 µM, a TGI (SK-MEL-28 melanoma) greater than 100 µM and a TGI (UACC-257 melanoma) greater than 100 µM. The TGI (NCI-H460 lung) was greater than 100 µM, the TGI (SK-MEL-2 melanoma) was greater than 100 µM and the TGI (SF-539 CNS) was greater than 100 µM. The TGI (BT-549 breast) was greater than 100 µM, the TGI (HT29 colon) was greater than 100 µM and the TGI (K-562 leukemia) was greater than 100 µM. For the same compound, the TGI (T-47D breast) was greater than 100 µM, the TGI (A498 renal) was greater than 100 µM and the TGI (SNB-19 CNS) was greater than 100 µM. It also gave a TGI (MDA-MB-435) greater than 100 µM.

Reference: PubChem BioAssay (NCI)
